Biological target: T1, human GPR120 (Homo sapiens, UniProt Q5NUL3)
T1 construct: host or cells: HEK293 cells co-expressing Gqi5
T1 sequence (Q5NUL3 1-361): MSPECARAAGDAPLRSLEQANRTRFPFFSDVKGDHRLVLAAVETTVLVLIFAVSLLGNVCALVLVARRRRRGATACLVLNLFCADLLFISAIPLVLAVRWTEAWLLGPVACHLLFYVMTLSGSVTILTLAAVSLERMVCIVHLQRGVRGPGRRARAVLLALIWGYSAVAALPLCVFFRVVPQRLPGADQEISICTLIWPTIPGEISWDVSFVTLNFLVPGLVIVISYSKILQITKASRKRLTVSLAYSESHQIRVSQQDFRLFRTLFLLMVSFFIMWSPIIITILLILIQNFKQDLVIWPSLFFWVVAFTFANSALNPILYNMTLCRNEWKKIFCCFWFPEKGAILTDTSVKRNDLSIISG
Assay: Intracellular Ca2+ assay in human GPR120 stable cell line (HEK293 co-expressing Gqi5), Flexstation
Format: cell-based
Details: % activity at 5 μM compared to the maximal activity of GW9508 at 6.7 μM (=100%); human GPR120 cells, Ca2+ fluorescence
Protocol: Human GPR120 stable cell line was purchased from Multispan Inc (26219 Eden Landing Road, Hayward, Calif. 94545). This GPR120 cell line was generated in HEK293 cells co-expressing Gqi5. In this cell line, the Flag epitope tag (DYKDDDDK) was fused to the amino terminus of human GPR120 protein.
The concentration of intracellular Ca^2+ was measured as described below. Human GPR120 cells were plated in 96 well plates (Poly-D-Lysine coated black/clear Plate, Greiner Bio-One) at 70,000 cells per well and cultured overnight in conditions of 37° C. and 5% CO2. A Ca^2+assay dye stock solution was prepared by adding 10 mL of assay buffer (HBSS/20 mM HEPES, pH 7.4) to FLIPR Calcium 4 Assay Bulk Kit (Molecular Devices). The 10 mL of Ca^2+ assay dye solution was prepared by further diluting 0.5 mL of Ca^2+ assay dye stock solution with 10 mL of assay buffer. The medium of the cells was removed and immediately 100 μL of the Ca^2+ assay dye solution was dispensed into each well followed by incubation at 37° C. and 5% CO2 for 50 minutes to incorporate the Ca^2+ dye into the cells. The cell plate was then placed in the Flexstation (Molecular Devices) for 20 minutes at 37° C. Compounds were dissolved in 100% DMSO and diluted to desired concentrations with assay buffer and placed in the Flexstation simultaneously with the cell plate for 20 minute incubation at 37° C. prior to reading. Fluorescence intensity was measured immediately following compound addition (25 μL/well) on the Flexstation at an excitation wavelength of 485 nm and an emission wavelength of 525 with 515 nm auto cutoff. The resulting increase in fluorescence intensities corresponds to increases in intracellular Ca^2+ levels.
Compounds were dissolved in 100% DMSO to a concentration of 20 mM to provide stock solutions. To determine activity against human GPR120, compounds were added with human GPR120 stably expressing cells (described above), at eight desired concentrations ranging from 0.00001 to 20 μM, in 96 well plates and fluorescence intensities were measured for 90 seconds with 2-second intervals. An EC50 value (concentration of the GPR120 agonist where 50% of the agonist's maximal activity is observed) was calculated using the changes (Max−Min) of fluorescence intensity.
To determine percent activity for a tested compound, the fluorescence intensity value obtained at a particular concentration were compared to the maximal fluorescence intensity value obtained for reference compound GW9508 (4-[[(3-phenoxyphenyl)methyl]amino]benzene propanoic acid; British Journal of Pharmacology 2006 148, 619-628) or the compound of Example 25. When GW9508 was used as the reference compound, the maximal activity of GW9508 at 6.7 μM was designated as 100% activity. When the compound of Example 25 was used as the reference compound, the maximal activity of the compound of Example 25 at 2.5 μM was designated as 100% activity. Typically, the GW9508 activity reached a maximum at a concentration of approximately 6.7 μM and typically the compound of Example 25 reached a maximum activity at approximately 2.5 μM.

Compared with Cc1cc2c(OCc3cc(F)cc4c3OC(C)(C)C4)ccc(CCC(=O)O)c2o1 [Example 125, 3-(4-((5-fluoro-2,2-dimethyl-2,3-dihydrobenzofuran-7-yl)methoxy)-2-methylbenzofuran-7-yl)propanoic acid], Cc1c(CCC(=O)O)ccc(OCc2cc(F)cc3c2OC(C)(C)C3)c1C [Example 208, 3-(4-((5-fluoro-2,2-dimethyl-2,3-dihydrobenzofuran-7-yl)methoxy)-2,3-dimethylphenyl)propanoic acid] is higher in “% Activity (GW9508 Reference Compound)” value: 32.57% for the first, 147.47% for the second.

Going from CC(Cc1ccc(OCc2ccc(F)c3c2OC(C)(C)C3)c(F)c1)C(=O)O (stereo not drawn) [Example 29, 3-(3-fluoro-4-((4-fluoro-2,2-dimethyl-2,3-dihydrobenzofuran-7-yl)methoxy)phenyl)-2-methylpropanoic acid] to C[C@H](Cc1ccc(OCc2cc(Cl)cc3c2OC(C)(C)C3)c(F)c1)C(=O)O [Example 141, (R)-3-(4-((5-chloro-2,2-dimethyl-2,3-dihydrobenzofuran-7-yl)methoxy)-3-fluorophenyl)-2-methylpropanoic acid], the “% Activity (GW9508 Reference Compound)” value rises from 133.5% to 143.3%.

Going from CC(Cc1ccc(COc2cccc3c2OC(C)(C)C3)c(F)c1)C(=O)O (stereo not drawn) [Example 44, 3-(4-(((2,2-dimethyl-2,3-dihydrobenzofuran-7-yl)oxy)methyl)-3-fluorophenyl)-2-methylpropanoic acid] to Cc1cc(CC(C)C(=O)O)ccc1OCc1cc(F)cc2c1OC(C)(C)C2 (stereo not drawn) [Example 6, 3-(4-((5-fluoro-2,2-dimethyl-2,3-dihydrobenzofuran-7-yl)methoxy)-3-methylphenyl)-2-methylpropanoic acid], the “% Activity (GW9508 Reference Compound)” value falls from 157.14% to 147.3%.

Going from COc1cc(OCc2cc(Cl)cc3c2OC2(CCCC2)C3)ccc1CCC(=O)O [Example 194, 3-(4-((5-chloro-3H-spiro[benzofuran-2,1′-cyclopentane]-7-yl)methoxy)-2-methoxyphenyl)propanoic acid] to CC(C)C(CC(=O)O)c1ccc(OCc2cc(Cl)cc3c2OC(C)(C)C3)cc1 (stereo not drawn) [Example 266, 3-(4-((5-chloro-2,2-dimethyl-2,3-dihydrobenzofuran-7-yl)methoxy)phenyl)-4-methylpentanoic acid], the “% Activity (GW9508 Reference Compound)” value falls from 148.21% to 42.73%.

Going from COc1cc(COc2ccc(CC(C)C(=O)O)cc2)c2c(c1)CC(C)(C)O2 (stereo not drawn) [Example 108, 3-(4-((5-methoxy-2,2-dimethyl-2,3-dihydrobenzofuran-7-yl)methoxy)phenyl)-2-methylpropanoic acid] to Cc1cc(COc2ccc(CC(C)C(=O)O)cc2)c2c(c1)CC(C)(C)O2 (stereo not drawn) [Example 4, 2-methyl-3-(4-((2,2,5-trimethyl-2,3-dihydrobenzofuran-7-yl)methoxy)phenyl)propanoic acid], the “% Activity (GW9508 Reference Compound)” value falls from 143.85% to 110.8%.

Going from Cc1cc2cccc(COc3ccc4c(c3)CCC4CC(=O)O)c2s1 (stereo not drawn) [Example 152, 2-(5-((2-methylbenzo[b]thiophen-7-yl)methoxy)-2,3-dihydro-1H-inden-1-yl)acetic acid] to CC(Cc1ccc(OCc2cc(Cl)cc3c2OC(C)(C)C3O)cc1)C(=O)O (stereo not drawn) [Example 130, 3-(4-((5-chloro-3-hydroxy-2,2-dimethyl-2,3-dihydrobenzofuran-7-yl)methoxy)phenyl)-2-methylpropanoic acid], the “% Activity (GW9508 Reference Compound)” value rises from 83.81% to 103.85%.

Going from CC1(C)Cc2cccc(COc3c(F)cc(CCC(=O)O)cc3F)c2O1 [Example 25, 3-(4-((2,2-dimethyl-2,3-dihydrobenzofuran-7-yl)methoxy)-3,5-difluorophenyl)propanoic acid] to CC1(C)Cc2cc(F)cc(COc3c(F)cc(C4CC4C(=O)O)cc3F)c2O1 (stereo not drawn) [Example 19, 2-(3,5-difluoro-4-((5-fluoro-2,2-dimethyl-2,3-dihydrobenzofuran-7-yl)methoxy)phenyl)cyclopropanecarboxylic acid], the “% Activity (GW9508 Reference Compound)” value rises from 101.8% to 125.5%.

Same assay, conditions: human GPR120 cells, Ca2+ fluorescence; reference compounds, typical value

CC1(C)Cc2cccc(COc3c(F)cc(CCC(=O)O)cc3F)c2O1 [Example 25, 3-(4-((2,2-dimethyl-2,3-dihydrobenzofuran-7-yl)methoxy)-3,5-difluorophenyl)propanoic acid] was tested, and the “concentration at which activity reached a maximum” value was “approximately 2.5 μM”.

Reference: patent US20130109734A1 (Metabolex, Inc., priority 2010, published 2013)
